# Laboratory results: publication PMC6468747 (Cancers, 2019)
# How the values were obtained:
# mTORC1 signaling = assay: Western blot of mTORC1 signaling in MDA-MB-231 and MDA-MB-468 cells; assay type: cell-based, human; details: 72 h
# Protocol: MDA-MB-231, MDA-MB-468, MDA-MB-436, MDA-MB-453, HCC-1806, and MFM-223 cells were purchased from American Type Culture Collection (ATCC, Manassas, VA, USA), and authenticated at the Biopolymer/Genomics Core Facility, University of Maryland Baltimore. Cells were tested for mycoplasma contamination at the University of Maryland Marlene and Stewart Greenebaum Cancer Center (UMGCC) Translational Shared Service. Cells were cultured in the recommended media supplemented with 10% FBS and plated 1 day prior to treatment. Cells were treated with the indicated dose and time in the figure at 37 °C in 5% CO2. Protein lysates were harvested in RIPA lysis buffer (Sigma). Western blotting was done as described previously with antibodies described above.
# MDA-MB-231 cells [1] = assay: Multiplex Luminex supernatant cytokine analysis; assay type: cell-based, human; details: 72 h, cell supernatants
# Protocol: Supernatants from the MDA-MB-231 (TNBC) cells in Fetal Bovine Serum (FBS) containing media were treated with various concentrations of VNLG-12R for 72 h, were collected, and various cytokines and growth factor concentrations (CLCX-1, IL-6, IL8 and TNF-α) were determined by Luminex multiplex assay kit (Millipore, Billerica, MA, USA) according to the manufacturer’s instructions. The expressions of secreted cytokines were read on Luminex 100 reader. The data was then analyzed using the BioPlex Software (BioRad, Hercules, CA, USA). The Luminex multiplex assays were conducted at the University of Maryland School of Medicine Cytokine Core Laboratory (Baltimore, MD, USA).
# MDA-MB-453 (LAR) = assay: MTT cell growth assay, 7 days; assay type: cell-based; details: Homo sapiens, MDA-MB-453, 168 h
# Protocol: (§1) Figure 3 In vitro characterization, pharmacokinetics and toxicity profile of VNLG-152R and its two enantiomers. (A) HPLC chromatograms racemic VNLG-152R (left panel) and the resolved enantiomers VNLG-152E1 and VNLG-152E2 (right panel). The conditions of HPLC procedure are presented in Supplementary Materials. (B) Table summarizing GI50 values (µM) each cell line treated with VNLG-152R and its enantiomers. TNBC cell subtypes were treated with listed compound (0.1 nmol/L–100 µmol/L) for 7 days and the GI50 values for the anti-proliferative effects of the compounds were determined from dose response curves (by a nonlinear regression analysis using Graph Pad Prism). Data represents the results from six independent experiments for each cell line. (C) Plasma concentration versus time profile after intravenous (IV, 2 mg/kg each, top panel) or oral (PO, 20 mg/kg each, bottom panel) of VNLG-152R (red), VNLG-152E1 (purple) and VNLG-152E2 (blue) to female CD1 mice. Values represent the mean plasma concentrations from three mice per time point. (D) Table of the pharmacokinetic parameters of various compounds after IV and PO dosing. AUC = area under the curve, T1/2 = elimination half-life, Cmax = maximum plasma concentration, F (%) = oral bioavailability. (E) Effects of VNLG-152R, VNLG-152E1 and VNLG-152E2 on body weight and clinical observations at chronic dose termination of study. Three different doses, i.e., 10, 25, and 50 mg/kg/day (formulated in 40% β-cyclodextrin in saline) of each compound were administered daily by oral gavage for 14 days. Each group consisted of three mice. Loss in body weight, a clinical sign of toxicity was observed during the 14 days of dosing and the maximum tolerated dose (MTD) was estimated following established procedures. Changes in body weight were scored on a scale of 0–4 as follows as described under methods. […]
# MFM-223 (LAR) = assay: MTT cell growth assay, 7 days; assay type: cell-based; details: Homo sapiens, MFM-223, 168 h
# Protocol: as §1
# [2] = test system: MDA-MB-231 tumor xenografts; assay: MDA-MB-231 cell-line derived xenograft (CDX), IP dose study; assay type: in vivo, athymic nude mice; details: for tumor growth inhibition (TGI): 5 days a week, 4 weeks
# Excerpt: Female athymic nude (Jackson Laboratory, Bar Harbor, Maine, USA) 5–6 weeks of age were housed under complete aseptic conditions, fed autoclaved pellets and sterile water ad libitum. Following a week of acclimatization, approximately 1 × 10^6 MDA-MB-231 cells were inoculated into both flanks for MDA-MB-231 derived xenograft tumors. Tumor-bearing mice (tumor volume around 90–110 mm^3) were randomized into various treatment groups (5 mice in each group; compounds formulated in vehicle) and treated as follows: (i) vehicle control (40% β-cyclodextrin in ddH2O, IP), (ii) VNLG-152R (5 mg/kg, IP, once daily), (iii) VNLG-152 (10 mg/kg, IP, once daily) and (iv) VNLG-152 (20 mg/kg, IP, once daily) 5 days/week for 29 days. Tumors were measured twice weekly with calipers and tumor volume was calculated by the formula: […] (mm^3). Animals were also weighed weekly and monitored for general health status and signs of possible toxicity due to treatments. Mice were sacrificed after the indicated periods of treatment and tumors and organs excised. Tumors were divided and either flash frozen in liquid nitrogen or placed in 10% buffered formalin for western blot analysis, immunohistochemistry (IHC), and hematoxylin and eosin (H & E) staining. It is important to state here that the control was part of a large study with our other retinamides whose data has already been reported.
# Western blotting of tumor tissue lysates was performed according to standard protocol. Briefly, 30–50 μg protein per lysate was denatured with 2× sample buffer and resolved on 12 or 16% Tris–glycine gels by sodium dodecyl sulfate–polyacrylamide gel electrophoresis. Separated proteins were transferred onto nitrocellulose membrane by western blotting, and membrane was blocked for 1 h in blocking buffer and then incubated with specific primary antibodies (1:1000 dilution), followed by peroxidase-conjugated appropriate secondary antibody (1:3000 dilution). Finally, proteins were visualized by enhanced chemiluminescence detection and exposure to X-ray film. To confirm equal protein loading, membranes were stripped and re-probed with mouse monoclonal anti-β-actin primary antibody (Sigma).
# MDA-MB-231 cells [3] = assay: Real time cell invasion assay (xCELLigence); assay type: cell-based, human; details: 2.5, 5 and 10 μM, 24 h pre-treatment
# Protocol: Real-time measurement of cell invasion was performed using the xCELLigence RTCA DP device (ACEA Biosciences, San Diego, CA, USA). MDA-MB-231 cells were treated with VNLG-152 (2.5, 5, and 10 μM) for 24 h, cells being treated with VNLG-152 when they were plated. Subsequently, cells were seeded (75,000/well) onto 16-well microelectronic censored, two chamber Matrigel-coated trans-well plates (CIM-plates) containing the respective drug in serum-free condition. Medium containing 10% serum (chemo-attractant) was added to the bottom wells. Invasion of cells was measured from the interaction of cells with the electrodes on the bottom surface of top chamber and represented as a change in cell index (CI), an arbitrary unit derived from the relative change in electrical impedance across microelectronic sensor arrays. The electrical impedance was captured every 3 min for an experimental duration of 24 h. The rate of invasion is expressed as the CI or the change in electrical impedance at each timepoint. Values are expressed as the ±SEM of the duplicate wells from three independent experiments.
smiles,measurement,setting,value
"CC1=C(/C=C/C(C)=C/C=C/C(C)=C/C(=O)Nc2ccc(F)cc2)C(C)(C)CCC1n1ccnc1 (racemic) [VNLG-152R, 4-(±)-(1H-imidazol-1-yl)-N-(4-fluorophenyl)-(E)-retinamide]","depletion of p-mTOR (Ser2448), p4E-BP1, peIF4E and p-p70 S6K",mTORC1 signaling,strong dose-dependent depletion
same,"secreted IL-6 and IL-8, TNFα and chemokine CXCL1",MDA-MB-231 cells [1],dose-dependent reduction
same,GI50,MDA-MB-453 (LAR),740 ± 30 nM
same,GI50,MFM-223 (LAR),1860 ± 120 nM
same,tumor growth inhibition (TGI),[2]; 5 mg/kg/day IP,91%
same,tumor growth inhibition (TGI),[2]; 10 mg/kg/day IP,97%
same,increase in the Bax/Bcl-2 ratio vs control,"[2]; 20 mg/kg IP, tumor lysates",470 fold
same,tumor growth inhibition (TGI),[2]; 20 mg/kg/day IP,97%
same,changes in body weights,"[2]; 5, 10, 20 mg/kg IP",no significant changes in body weights were observed
same,"gross organ (liver, lung and kidney) abnormalities","[2]; 5, 10, 20 mg/kg IP, H&E staining","no gross organ (liver, lung and kidney) abnormalities"
same,"expression of Mnk1, Mnk2, p-eIF4E, cyclin D1, Bcl-2, Bax and Bad in tumors","[2]; 10 or 20 mg/kg IP, western blot","significant dose-dependent suppressions of Mnk1, Mnk2, p-eIF4E, cyclin D1, Bcl-2, and up-regulation of Bax and Bad"
same,invasive ability (cell index),MDA-MB-231 cells [3],significantly lower
